Source: patent US20200247897A1, “THERAPEUTIC ANTIBODIES BASED ON MUTATED IGG HEXAMERS” (GENMAB B.V., priority 2017, published 2020)
pIC50: −log10 of the molar value.

System: panel of 235 cell lines representing 14 tumor lineages
Experiment: ATPlite growth inhibition screening of a human cancer cell line panel (Horizon Discovery)
Type: cell-based
Procedure: A 72 hour ATPlite assay (except for DLD-1 and HCT116 cell lines, for which a 120 hour assay was performed) with growth inhibition analysis was performed in two parts at Horizon Discovery Ltd, UK. Samples were tested as four replicates in 384-well assay plates. Serial dilution series of antibody, starting from 0.072 μM final concentration was used for all tested cell lines. For TRAIL (Invitrogen; Cat # PHC1634) serial dilution series starting from 0.01 μM final concentration for the cell lines tested in the first part and 0.17 μM final concentration for the cell lines tested in the second part of the screening was used.

[1] = MCAS, ovary cancer, screening #1
[2] = MCF7, breast cancer, screening #2
[3] = MDA-MB-453, breast cancer (TNBC), screening #2
[4] = MDA-MB-468, breast cancer (TNBC), screening #2
[5] = OVCAR-5, ovary cancer, screening #1
[6] = OVK18, ovary cancer, screening #1
[7] = PK-1, pancreatic cancer, screening #1
[8] = PSN1, pancreatic cancer, screening #1
[9] = Panc 02.13, pancreatic cancer, screening #1
[10] = RERF-LC-KJ, NSCLC, screening #1
[11] = RT4, bladder cancer, screening #2
[12] = RT-112, bladder cancer, screening #2
[13] = SCaBER, bladder cancer, screening #1
[14] = SF295, neural tissue cancer, screening #2
[15] = SK-BR-3, breast cancer, screening #2
[16] = SNU119, ovary cancer, screening #1
[17] = SNU-308, liver cancer, screening #1
[18] = SW780, bladder cancer, screening #1
[19] = T47D, breast cancer, screening #2
[20] = T-24, bladder cancer, screening #2
[21] = TCCSUP, bladder cancer, screening #2
[22] = UM-UC-3, bladder cancer, screening #1

## TRAIL: natural DR5 ligand, recombinant human TRAIL/APO-2L
KURAMOCHI, ovary cancer, screening #1
  Max Inhibition: 13.4%
LC1F, NSCLC, screening #1
  pIC50: 9.35
  Max Inhibition: 74.3%
LC-1sq, NSCLC, screening #1
  pIC50: 9.11
  Max Inhibition: 70.1%
LCLC-97TM1, NSCLC, screening #1
  Max Inhibition: 4.6%
LCLC-103H, NSCLC, screening #1
  pIC50: 8.10
  Max Inhibition: 54.2%
LK-2, NSCLC, screening #1
  Max Inhibition: 5.6%
LOU-NH91, NSCLC, screening #1
  pIC50: 8.27
  Max Inhibition: 63.0%
LU-65, NSCLC, screening #1
  Max Inhibition: 32.4%
LU-99, NSCLC, screening #1
  Max Inhibition: 6.3%
LUDLU-1, NSCLC, screening #1
  pIC50: 9.32
  Max Inhibition: 91.1%
LXF-289, NSCLC, screening #1
  Max Inhibition: 12.7%
[1]
  pIC50: 7.25
  Max Inhibition: 48.4%
[2]
  pIC50: 10.26
  Max Inhibition: 21.7%
MDA-MB-231, breast cancer (TNBC), screening #1
  pIC50: 9.96
MDA-MB-436, breast cancer (TNBC), screening #2
  pIC50: 10.28
[3]
  pIC50: 7.46
  Max Inhibition: 20.7%
[4]
  pIC50: 9.19
  Max Inhibition: 89.4%
MDST8, colorectal cancer, screening #1
  pIC50: 8.92
MEL-HO, melanoma, screening #1
  Max Inhibition: 16.7%
MEL-JUSO, melanoma, screening #1
  Max Inhibition: 7.6%
MES-SA, endometrial cancer, screening #1
  pIC50: 9.97
NCI-H460, NSCLC, screening #1
  pIC50: 9.07
  Max Inhibition: 86.1%
NCI-H820, NSCLC, screening #1
  pIC50: 10.64
  Max Inhibition: 100.0%
NMC-G1, neural tissue cancer, screening #2
  pIC50: 7.75
OV7, ovary cancer, screening #1
  Max Inhibition: 20.4%
[5]
  pIC50: 8.95
  Max Inhibition: 70.6%
OVISE, ovary cancer, screening #1
  Max Inhibition: 4.0%
[6]
  pIC50: 9.64
  Max Inhibition: 80.0%
OVTOKO, ovary cancer, screening #1
  Max Inhibition: 28.0%
[7]
  pIC50: 9.26
  Max Inhibition: 88.3%
[8]
  pIC50: 9.69
  Max Inhibition: 86.9%
[9]
  pIC50: 8.72
  Max Inhibition: 60.5%
[10]
  pIC50: 9.20
  Max Inhibition: 68.9%
RL95-2, endometrial cancer, screening #1
  pIC50: 9.81
[11]
  pIC50: 9.61
  Max Inhibition: 91.5%
[12]
  pIC50: 9.49
  Max Inhibition: 50.9%
RVH-421, melanoma, screening #1
  Max Inhibition: 22.5%
[13]
  pIC50: 10.09
  Max Inhibition: 25.8%
SF126, neural tissue cancer, screening #2
  pIC50: 10.89
[14]
  pIC50: 10.64
  Max Inhibition: 87.5%
[15]
  pIC50: 9.29
  Max Inhibition: 38.1%
SK-MEL-30, melanoma, screening #1
  Max Inhibition: 6.1%
SNB-75, neural tissue cancer, screening #2
  pIC50: 6.98
SNG-II, endometrial cancer, screening #1
  pIC50: 8.99
SNU5, gastric cancer, screening #1
  pIC50: 9.96
[16]
  pIC50: 10.09
  Max Inhibition: 83.7%
SNU1033, colorectal cancer, screening #1
  pIC50: 8.00
SNU-175, colorectal cancer, screening #1
  pIC50: 9.91
[17]
  pIC50: 9.03
  Max Inhibition: 72.4%
SNU-407, colorectal cancer, screening #1
  pIC50: 10.01
SNU-478, liver cancer, screening #1
  pIC50: 9.29
SNU-601, gastric cancer, screening #1
  pIC50: 9.55
SNU-620, gastric cancer, screening #1
  pIC50: 10.35
SNU-668, gastric cancer, screening #1
  pIC50: 10.39
SNU-719, gastric cancer, screening #1
  pIC50: 8.95
SNU-869, liver cancer, screening #1
  pIC50: 8.53
SNU-878, liver cancer, screening #1
  Max Inhibition: 36.2%
SNU-1197, colorectal cancer, screening #1
  pIC50: 10.28
SNU-C2B, colorectal cancer, screening #1
  pIC50: 9.15
SUM159PT, breast cancer (TNBC), screening #2
  pIC50: 10.48
SW480, colorectal cancer, screening #1
  pIC50: 8.69
[18]
  pIC50: 10.80
  Max Inhibition: 97.9%
SW837, colorectal cancer, screening #1
  pIC50: 9.03
SW1573, NSCLC, screening #1
  Max Inhibition: 13.9%
T3M-10, NSCLC, screening #1
  pIC50: 9.31
  Max Inhibition: 83.7%
[19]
  pIC50: 6.46
  Max Inhibition: 8.4%
[20]
  pIC50: 9.78
  Max Inhibition: 20.5%
[21]
  pIC50: 10.32
  Max Inhibition: 51.5%
TE-4, head and neck cancer, screening #1
  pIC50: 9.97
TE-6, head and neck cancer, screening #1
  pIC50: 8.41
TE-9, head and neck cancer, screening #1
  pIC50: 9.52
TEN, endometrial cancer, screening #1
  pIC50: 8.92
U-87 MG, neural tissue cancer, screening #2
  pIC50: 10.28
[22]
  pIC50: 11.30
  Max Inhibition: 99.4%
VMRC-LCD, NSCLC, screening #1
  Max Inhibition: 19.2%
WM-266-4, melanoma, screening #1
  Max Inhibition: 42.5%
YD-15, head and neck cancer, screening #1
  pIC50: 9.94
YH-13, neural tissue cancer, screening #2
  pIC50: 9.50
monotherapy, 72 hour ATPlite assay
  responder cell lines (maximum response threshold 70% inhibition): found for all tested tumor indications, except small cell lung cancer (SCLC)
